These compounds were tested on genotype A, "Long" strain RSV (assay: RSV-A assay (CPE protection in Hep-2 cells, ATPlite readout)). Conditions: RSV-A Long strain, MOI 0.1, CPE protection, read-out: Human RSV-A (“Long”) EC50.
Format: cell-based, Human respiratory syncytial virus (HRSV)
How it was run: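 Hep-2 cells (8,000/well) infected with RSV Long strain at MOI 0.1 in the presence of 2-fold compound dilutions in duplicate. After 5 days, cell viability measured by ATPlite luminescence, normalized between virus-only and uninfected cell controls; EC50 reported.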

| EC50 | Compound |
| --- | --- |
| < 200 nM | COc1cc(C(=O)NC[C@@](O)(c2cc3c(c(-c4ccc(F)c(Br)c4F)n2)OC[C@]3(C)C(N)=O)C(F)(F)F)cc2cn(C3CC3)nc12 [Example 1220] |

Same assay, conditions: human respiratory syncytial virus, RSV-A Long strain, MOI 0.1, CPE protection, read-out: Human RSV-A (“Long”) EC50

| EC50 | Compound |
| --- | --- |
| < 200 nM | COc1cc(C(=O)NC[C@](O)(c2cc3c(c(-c4ccc(F)cc4)n2)OC[C@]3(C)C(N)=O)C2CC2)cc2cc(Br)c(C)nc12 [Example 1117] |
| < 200 nM | COc1cc(C(=O)NC[C@](O)(c2cc3c(c(-c4ccc(F)cc4F)n2)OC[C@]3(C)C(N)=O)C2CC2)cc2cn(C3CC3)nc12 [Example 1277] |
| < 200 nM | COc1cc(C(=O)NC[C@](O)(c2cc3c(c(-c4ccc5c(c4)OC(F)(F)O5)n2)OC[C@]3(C)C(N)=O)C(F)(F)F)cc2cc(C3CC3)nnc12 [Example 1111] |
| < 200 nM | COc1cc(C(=O)NC[C@](O)(c2cc3c(c(-c4ccc5c(c4)OC(F)(F)O5)n2)OC[C@]3(C)C(N)=O)C(F)(F)F)cc2cc(C)nnc12 [Example 1110] |
| < 200 nM | COc1cc(C(=O)NC[C@](O)(c2cc3c(c(-c4c(F)ccc(Cl)c4Cl)n2)OC[C@]3(C)C(N)=O)C2CC2)cc2cn(C3CC3)nc12 [Example 1289] |
| < 200 nM | COc1cc(C(=O)NC[C@](O)(c2cc3c(c(-c4c(Cl)ccc(F)c4F)n2)OC[C@]3(C)C(N)=O)C(F)(F)F)cc2cn(C3CC3)nc12 [Example 1284] |
| < 200 nM | COc1cc(C(=O)NC[C@](O)(c2cc3c(c(-c4cc(Cl)c(F)cc4F)n2)OC[C@]3(C)C(N)=O)C2CC2)cc2sc(C)nc12 [Example 1131] |
| < 200 nM | COc1cc(C(=O)NCC(O)(c2cc3c(c(-c4cc(Cl)cc(Cl)c4)n2)OC[C@]3(C)C(N)=O)C(F)(F)F)cc2cn(C3CC3)nc12 (stereo partly shown) [Example 1256] |
| < 200 nM | COc1cc(C(=O)NC[C@](O)(c2cc3c(c(-c4ccc(F)c(F)c4Cl)n2)OC[C@]3(C)C(=O)NC2(C)CC2)C(F)(F)F)cc2cn(C3CC3)nc12 [Example 1204] |
| < 200 nM | Cc1cnc2c(OC(F)F)cc(C(=O)NC[C@](O)(c3cc4c(c(-c5cccc(Br)c5F)n3)OC[C@]4(C)C(N)=O)C3CC3)cc2c1 [Example 1206] |
| < 200 nM | Cc1cnc2c(OC(F)F)cc(C(=O)NC[C@](O)(c3cc4c(c(-c5ccc(Cl)c(F)c5F)n3)OC[C@]4(C)C(N)=O)C3CC3)cc2c1 [Example 1214] |
| > 200 nM | COc1cc(C(=O)NCC(O)(c2cc3c(c(-c4ccc5c(c4)OC(F)(F)C5(F)F)n2)OC[C@]3(C)C(N)=O)C(F)(F)F)cc2cn(C3CC3)nc12 (stereo partly shown) [Example 1236] |
| < 200 nM | Cc1cnc2c(OC(F)F)cc(C(=O)NC[C@](O)(c3cc4c(c(-c5ccc(F)c(Br)c5F)n3)OC[C@]4(C)C(N)=O)C3CC3)cc2c1 [Example 1207] |
| < 200 nM | COc1cc(C(=O)NC[C@@](O)(c2cc3c(c(-c4cc(F)cc(F)c4F)n2)OC[C@]3(C)C(N)=O)C(F)(F)F)cc2cn(C3CC3)nc12 [Example 1246] |
| < 200 nM | COc1cc(C(=O)NC[C@](O)(c2cc3c(c(-c4cc(Cl)c(F)cc4F)n2)OC[C@]3(C)C(=O)NC2(C)CC2)C(F)(F)F)cc2cn(C3CC3)nc12 [Example 1205] |
| < 200 nM | Cc1cc2cc(C(=O)NC[C@](O)(c3cc4c(c(-c5ccc(F)c(Cl)c5F)n3)OC[C@]4(C)C(N)=O)C3CC3)cc(OC3CC3)c2nc1Cl [Example 1077] |
| < 200 nM | COc1cc(C(=O)NC[C@@](O)(c2cc3c(c(-c4cc(Br)c(F)cc4F)n2)OC[C@]3(C)C(N)=O)C(F)(F)F)cc2cn(C3CC3)nc12 [Example 1222] |
| < 200 nM | COc1cc(C(=O)NC[C@](O)(c2cc3c(c(-c4cc(F)cc(Cl)c4Cl)n2)OC[C@]3(C)C(N)=O)C2CC2)cc2cn(C3CC3)nc12 [Example 1285] |

Same assay, conditions: human respiratory syncytial virus, genotype A “Long” strain RSV, MOI 0.1, CPE protection, read-out: Human RSV-A (“Long”)

| EC50 | Compound |
| --- | --- |
| > 200 nM | C[C@]1(C(N)=O)COc2c1cc([C@@](O)(CNC(=O)c1cc3cccnc3s1)C(F)(F)F)nc2-c1ccc(F)cc1 [Example 377] |
| > 200 nM | Cn1nc2ccccc2c1C(=O)NC[C@](O)(c1cc2c(c(-c3ccc(F)cc3)n1)OC[C@]2(C)C(N)=O)C(F)(F)F [Example 424] |
| > 200 nM | C[C@]1(C(N)=O)COc2c1cc([C@@](O)(CNC(=O)c1nccs1)C(F)(F)F)nc2-c1ccc(F)cc1 [Example 396] |
| > 200 nM | C[C@]1(C(N)=O)COc2c1cc([C@@](O)(CNC(=O)c1cn3cc(OC4CC4)ccc3n1)C(F)(F)F)nc2-c1ccc(F)cc1 [Example 813] |
| < 200 nM | C[C@]1(C(N)=O)COc2c1cc([C@@](O)(CNC(=O)c1cc(F)c3oc(N)nc3c1)C(F)(F)F)nc2-c1ccc(F)cc1 [Example 90] |
| > 200 nM | CC[C@@]1(C(N)=O)COc2c1cc([C@@](O)(CNC(=O)c1cc(OC)c3ncc(C(F)(F)F)cc3c1)C(F)(F)F)nc2-c1ccc(F)cc1 [Example 248] |
| < 200 nM | Cc1cnc2c(Nc3ccc(C(C)C)nn3)cc(C(=O)NC[C@](O)(c3cc4c(c(-c5ccc(F)cc5)n3)OC[C@]4(C)C(N)=O)C(F)(F)F)cc2c1 [Example 115] |
| > 200 nM | Cc1cc2[nH]ncc2cc1C(=O)NC[C@](O)(c1cc2c(c(-c3ccc(F)cc3)n1)OC[C@]2(C)C(N)=O)C(F)(F)F [Example 127] |
| > 200 nM | Cc1sc(-c2ccccc2)nc1C(=O)NC[C@](O)(c1cc2c(c(-c3ccc(F)cc3)n1)OC[C@]2(C)C(N)=O)C(F)(F)F [Example 483] |
| > 200 nM | C[C@]1(C(N)=O)COc2c1cc([C@@](O)(CNC(=O)c1cncs1)C(F)(F)F)nc2-c1ccc(F)cc1 [Example 389] |
| > 200 nM | C[C@]1(C(N)=O)COc2c1cc([C@@](O)(CNC(=O)c1cc3ccc(C(F)(F)F)cc3[nH]1)C(F)(F)F)nc2-c1ccc(F)cc1 [Example 338] |
| > 200 nM | C[C@]1(C(N)=O)COc2c1cc([C@@](O)(CNC(=O)c1cc3ncccc3s1)C(F)(F)F)nc2-c1ccc(F)cc1 [Example 371] |
| > 200 nM | COc1cccc(-c2n[nH]cc2C(=O)NC[C@](O)(c2cc3c(c(-c4ccc(F)cc4)n2)OC[C@]3(C)C(N)=O)C(F)(F)F)c1 [Example 448] |
| > 200 nM | C[C@]1(C(N)=O)COc2c1cc([C@@](O)(CNC(=O)c1cc3cn[nH]c3cc1Cl)C(F)(F)F)nc2-c1ccc(F)cc1 [Example 106] |
| > 200 nM | COc1cc(C(=O)NC[C@](O)(c2cc3c(c(-c4ccc(F)cc4)n2)OC[C@]3(C(N)=O)C2CC2)C(F)(F)F)cc2cn(C3CC3)nc12 [Example 281] |
| > 200 nM | C[C@]1(C(N)=O)COc2c1cc([C@@](O)(CNC(=O)c1ccnnc1)C(F)(F)F)nc2-c1ccc(F)cc1 [Example 406] |
| > 200 nM | Cn1c(C(=O)NC[C@](O)(c2cc3c(c(-c4ccc(F)cc4)n2)OC[C@]3(C)C(N)=O)C(F)(F)F)cc2ccccc21 [Example 401] |
| > 200 nM | COc1cccc2[nH]nc(C(=O)NC[C@](O)(c3cc4c(c(-c5ccc(F)cc5)n3)OC[C@]4(C)C(N)=O)C(F)(F)F)c12 [Example 395] |

| EC50 | Compound |
| --- | --- |
| > 200 nM | COc1cc(C(=O)NC[C@](O)(c2cc3c(c(-c4ccc(F)cc4)n2)OC[C@]3(C)C(N)=O)C(F)(F)F)nc2cc(C)nn12 [Example 180] |
| > 200 nM | C[C@]1(C(N)=O)COc2c1cc([C@@](O)(CNC(=O)c1cnc3ccc(F)cn13)C(F)(F)F)nc2-c1ccc(F)cc1 [Example 367] |
| < 200 nM | C[C@]1(C(N)=O)COc2c1cc([C@@](O)(CNC(=O)c1ccc3nc(NC(=N)N)sc3c1)C(F)(F)F)nc2-c1ccc(F)cc1 [Example 159] |
| < 200 nM | CC[C@]1(C(N)=O)COc2c1cc([C@@](O)(CNC(=O)c1cc(OC)c3ncccc3c1)C(F)(F)F)nc2-c1ccc(F)cc1 [Example 237] |
| < 200 nM | COc1cc(C(=O)NC[C@](O)(c2cc3c(c(-c4ccc(F)cc4)n2)OC[C@]3(C)C(N)=O)C(F)(F)F)ccc1OC[C@H](C)O [Example 133] |
| < 200 nM | C[C@]1(C(N)=O)COc2c1cc([C@@](O)(CNC(=O)c1cn3cc(Cl)ccc3n1)C(F)(F)F)nc2-c1ccc(F)cc1 [Example 808] |
| < 200 nM | COc1cc(C(=O)NC[C@](O)(c2cc3c(c(-c4ccc(F)cc4)n2)OCC3(CF)C(N)=O)C(F)(F)F)cc2cn(C3CC3)nc12 (stereo partly shown) [Example 295] |
| > 200 nM | C[C@]1(C(N)=O)COc2c1cc([C@@](O)(CNC(=O)c1cnc3cccnn13)C(F)(F)F)nc2-c1ccc(F)cc1 [Example 409] |
| < 200 nM | C[C@]1(C(N)=O)COc2c1cc([C@@](O)(CNC(=O)c1cccc3nc(N)sc13)C(F)(F)F)nc2-c1ccc(F)cc1 [Example 490] |
| < 200 nM | C[C@]1(C(N)=O)COc2c1cc([C@@](O)(CNC(=O)c1ccc3oc(N)nc3c1)C(F)(F)F)nc2-c1ccc(F)cc1 [Example 191] |
| > 200 nM | C[C@]1(C(N)=O)COc2c1cc([C@@](O)(CNC(=O)c1ccn3ccnc3c1)C(F)(F)F)nc2-c1ccc(F)cc1 [Example 402] |
| > 200 nM | C[C@]1(C(N)=O)COc2c1cc([C@@](O)(CNC(=O)c1cnn(-c3ccc(C(F)(F)F)cc3)c1)C(F)(F)F)nc2-c1ccc(F)cc1 [Example 455] |
| > 200 nM | Cc1cc2nc(C(=O)NC[C@](O)(c3cc4c(c(-c5ccc(F)cc5)n3)OC[C@]4(C)C(N)=O)C(F)(F)F)cc(C)n2n1 [Example 181] |
| < 200 nM | COc1cc(C(=O)NC[C@](O)(c2cc3c(c(-c4ccc(F)cc4)n2)OC[C@@]3(C(N)=O)C2CC2)C(F)(F)F)cn2cc(C3CC3)nc12 [Example 272] |
| > 200 nM | COc1ccc(-n2cc(C(=O)NC[C@](O)(c3cc4c(c(-c5ccc(F)cc5)n3)OC[C@]4(C)C(N)=O)C(F)(F)F)cn2)cc1 [Example 450] |
| < 200 nM | COc1cc(C(=O)NC[C@](O)(c2cc3c(c(-c4ccc(F)cc4)n2)OC[C@]3(CF)C(N)=O)C(F)(F)F)cc2cccnc12 [Example 283] |
| > 200 nM | COc1ccc(-c2cc(C(=O)NC[C@](O)(c3cc4c(c(-c5ccc(F)cc5)n3)OC[C@]4(C)C(N)=O)C(F)(F)F)n[nH]2)cc1 [Example 209] |
| > 200 nM | C[C@]1(C(N)=O)COc2c1cc([C@@](O)(CNC(=O)c1cnc3cc[nH]c3c1)C(F)(F)F)nc2-c1ccc(F)cc1 [Example 343] |
